# “And” between values parts separate entries of the source, which are not always exact repeats. Identical values can stand only once. Marks after values point to notes of the source that are not given here.
# Assays:
# Format in all cases: cell-based
# A549 lung cancer cells = assay: MTT cell growth and proliferation experiment, A549; design: key to Inhibition Rate: (control OD570 − test OD570)/control OD570, as fraction
# Procedure: (§1) 1.1 Reagents 12 retinoic acid derivatives with the final concentrations of 1 ug/ml, 5 ug/ml and 10 ug/ml are synthesized by the Pharmaceutical College of Anhui Medical University using DMSO and anhydrous ethanol, separately packaged for storage at −20° C. and kept out of the light when used, and the final concentration of DMSO is less than 0.1%. MTT is purchased from Sigma Corp. The Coulter DNA detection kit is presented by the Central Lab of Anhui Provincial Hospital. AFP and γ-GT are provided by the Clinical Lab of No. 105 Hospital of PLA. Apoptosis-Hoechst staining kit is purchased from Beyotime Company.
# (§2) 1.2 Cell Culture A549, and HpeG2 cells are stored by our lab. Cell growth condition: DMEM (from GIBICO Company) culture solution is added with 10% of calf serum (purchased from the Hangzhou Sijiqing Biological Engineering Material Co., Ltd.) to culture in a cell culture incubator (37° C., 5% CO2) with saturated humidity.
# (§3) 1.3 Cell Growth and Proliferation Experiments MTT process is used. Cells in the logarithmic phase are picked and seeded on a 96-hole culture board with a cell concentration of 5×10^7/L. Each hole of the board is 200 ul. The next day after the adherence, the original solution is discarded, and the culture solution is added. The cells are divided into 1 ug/ml retinoic acid derivative groups, 5 ug/ml retinoic acid derivative groups, 10 ug/ml retinoic acid derivative groups, blank control groups, cell control groups, solvent control groups (1‰ DMSO and anhydrous ethanol) (17 in total) according to the concentrations thereof, incubated for 3d, added with MTT (5 g/L) of 20 ul/hole for incubation at 37° C. for 4 h. The original solution is carefully discarded and dried, and DMSO of 20 ul/hole is added to dissolve crystals, followed by vibrating for 10 min and determining the OD value at 570 nm. Each concentration is corresponding to 5 holes, and each group calculates the average of 3 experiments to calculate the inhibition rate to the cell growth according to the optical density (OD) average of each hole in each group and the following equation: inhibition rate %=(control hole OD570−experimental hole OD570)/control hole OD5700*100%. The process above is repeated for three times. The second experiment takes the maximum concentration (10 […]) for culture respectively for 1, 2, 3 and 7 days and repeat for three times.
# liver cancer HepG2 cells = assay: MTT cell growth and proliferation experiment, HepG2; design: key to Inhibition Rate: (control OD570 − test OD570)/control OD570, as fraction; details: for Inhibition Rate: fraction
# Procedure: as §1, §2, §3
# HepG2 cells [1] = assay: AFP secretory volume of HepG2 cells; details: HepG2 cells, DMSO
# A549 cells [2] = assay: Differentiation index: CEA secretory volume of A549 cells; details: A549 culture supernatant, 10 ug/ml, 3 d
# Procedure: 1.6 Detection of Differentiation Index The cultured A549 cells are randomly divided into 6 10 μg/ml drug groups, cell control groups, solvent control groups (DMSO and ethanol) and 10 μg/ml fenretinide control groups (11 in total). The control groups and drug groups are cultured for 3 days to collect respective 3 tubes of cell culture solutions which are centrifugated at a speed of 4000 r/min for 5 min to take the supernatant and detect the CEA content of the kit by using enzyme kinetics and CEA detection.
# HepG2 cells [3] = assay: γ-GT specific activity of HepG2 cells; details: DMSO
# HepG2 cells [4] = assay: Cell cycle and apoptosis by flow cytometry, HepG2; details: HepG2, flow cytometry
# A549 cells [5] = assay: Cell cycle and apoptosis by flow cytometry, A549; details: A549, 10 μg/ml, 3 days; for Apoptosis Rate (%) / G0-G1 (%) / G2-M (%) / S %: PI flow cytometry
# Procedure: 1.4 Detection of Cell Cycle and Apoptosis by Flow Cytometry A549 cells in the logarithmic phase are collected, regulated with the concentrations thereof to 8×10^7/L, inoculated in a 6-hole board, cultured in an incubator (37° C. and 5% CO2). After the cells are adhered, the culture solution is discarded, and a culture solution having drugs with the corresponding concentrations is added and divided into 10 μg/ml drug groups, 10 μg/ml fenretinide groups, cell control groups, solvent control groups (1‰ DMSO and anhydrous ethanol) (11 in total). After 3 days, each group of cells is normally digested, collected, blown into single cell suspension, washed by cold PBS twice, and re-suspend by 10 μl PBS. Fixing and member breaking agents and a PI staining solution are added according to the Coulter DNA detection kit and reacted with one another at the room temperature and out of light for 30 min for machine detection. Each sample detects 10000 cells and repeats for three times, and the data are analyzed by Analysis software for the ratio during the G0-G1, S and G2-M periods and the ratio of apoptotic cells.
# [6] = A549, MTT time gradient, 10 ug/ml, 1 d
# [7] = A549, MTT time gradient, 10 ug/ml, 1 d, fraction
# [8] = A549, MTT time gradient, 10 ug/ml, 2 d
# [9] = A549, MTT time gradient, 10 ug/ml, 2 d, fraction
# [10] = A549, MTT time gradient, 10 ug/ml, 3 d
# [11] = A549, MTT time gradient, 10 ug/ml, 3 d, fraction
# [12] = A549, MTT time gradient, 10 ug/ml, 7 d
# [13] = A549, MTT time gradient, 10 ug/ml, 7 d, fraction
# [14] = HepG2, MTT OD 570 nm, 1 ug/ml, 3 d, solvent not given
# [15] = HepG2, MTT OD 570 nm, 5 ug/ml, 3 d, solvent not given
# [16] = HepG2, MTT OD 570 nm, 10 ug/ml, 3 d, solvent not given
# [17] = HepG2, MTT time gradient, 10 ug/ml, 1 d
# [18] = HepG2, MTT time gradient, 10 ug/ml, 2 d
# [19] = HepG2, MTT time gradient, 10 ug/ml, 3 d
# [20] = HepG2, MTT time gradient, 10 ug/ml, 7 d
# [21] = HepG2, MTT, 1 ug/ml, 3 d, solvent not given
# [22] = HepG2, MTT, 5 ug/ml, 3 d, solvent not given
# [23] = HepG2, MTT, 10 ug/ml, 3 d, solvent not given
# [24] = HepG2, Table 5 repeat MTT, 10 ug/ml, 3 days, DMSO
structure (smiles),measurement,setting,value
"CC1=C(/C=C/C(C)=C/C=C/C(C)=C/C(=O)Oc2ccccc2C(F)(F)F)C(C)(C)CCC1 [Example 2a-03, (2-trifluoromethylphenyl)-(all-trans)-3,7-dimethyl-9-(2,6,6-trimethyl-1-cyclohexen-1-yl)-2,4,6,8-nonatetraenoate]",OD Value (x ± s),"A549 lung cancer cells; A549, MTT OD 570 nm, 1 ug/ml, 3 d, solvent ethanol",1.639 ± 0.115
same,OD Value (x ± s),"A549 lung cancer cells; A549, MTT OD 570 nm, 5 ug/ml, 3 d, solvent ethanol",1.555 ± 0.162
same,OD Value (x ± s),"A549 lung cancer cells; A549, MTT OD 570 nm, 10 ug/ml, 3 d, solvent ethanol",1.382 ± 0.133
same,OD Value (x ± s),A549 lung cancer cells; [6],0.902 ± 0.055
same,Inhibition Rate,A549 lung cancer cells; [7],0.016
same,OD Value (x ± s),A549 lung cancer cells; [8],1.066 ± 0.015
same,Inhibition Rate,A549 lung cancer cells; [9],0.271
same,OD Value (x ± s),A549 lung cancer cells; [10],0.635 ± 0.033
same,Inhibition Rate,A549 lung cancer cells; [11],0.315
same,OD Value (x ± s),A549 lung cancer cells; [12],1.393 ± 0.043
same,Inhibition Rate,A549 lung cancer cells; [13],0.328
same,Inhibition Rate,"A549 lung cancer cells; A549, MTT, 1 ug/ml, 3 d, solvent ethanol, given as fraction",0.122
same,Inhibition Rate,"A549 lung cancer cells; A549, MTT, 5 ug/ml, 3 d, solvent ethanol, given as fraction",0.167
same,Inhibition Rate,"A549 lung cancer cells; A549, MTT, 10 ug/ml, 3 d, solvent ethanol, given as fraction",0.260
same,OD Value (x ± s),liver cancer HepG2 cells; [14],1.32 ± 0.50
same,OD Value (x ± s),liver cancer HepG2 cells; [15],1.32 ± 0.56
same,OD Value (x ± s),liver cancer HepG2 cells; [16],0.98 ± 0.19
same,OD Value (x ± s),liver cancer HepG2 cells; [17],1.61 ± 0.14
same,Inhibition Rate,liver cancer HepG2 cells; [17],0.07
same,OD Value (x ± s),liver cancer HepG2 cells; [18],1.55 ± 0.09
same,Inhibition Rate,liver cancer HepG2 cells; [18],0.08
same,OD Value (x ± s),liver cancer HepG2 cells; [19],1.24 ± 0.09
same,Inhibition Rate,liver cancer HepG2 cells; [19],0.09
same,OD Value (x ± s),liver cancer HepG2 cells; [20],0.79 ± 0.08
same,Inhibition Rate,liver cancer HepG2 cells; [20],0.36
same,Inhibition Rate,liver cancer HepG2 cells; [21],0.22
same,Inhibition Rate,liver cancer HepG2 cells; [22],0.23
same,Inhibition Rate,liver cancer HepG2 cells; [23],0.42
same,OD Value (x ± s),liver cancer HepG2 cells; [24],1.847 ± 0.091
same,Inhibition Rate,liver cancer HepG2 cells; [24],0.468*
same,AFP,HepG2 cells [1],14.7 µg/L
same,CEA,A549 cells [2]; ethanol,3.9 µg/L
same,γ-GT,HepG2 cells [3],60.6 ± 0.5 U/L
same,Apoptosis Rate (%),HepG2 cells [4],16.3* %
same,G0-G1 (%),HepG2 cells [4],57.3%
same,G2-M (%),HepG2 cells [4],3.40%
same,S %,HepG2 cells [4],25.5%
same,Apoptosis Rate (%),A549 cells [5],28.9%
same,G0-G1 (%),A549 cells [5],45.7%
same,G2-M (%),A549 cells [5],1.01%
same,S %,A549 cells [5],25.8%
"CC1=C(/C=C/C(C)=C/C=C/C(C)=C/C(=O)Nc2cccc(C(F)(F)F)c2)C(C)(C)CCC1 [Example 3a-02, (3-trifluoromethylphenyl)-(all-trans)-3,7-dimethyl-9-(2,6,6-trimethyl-1-cyclohexen-1-yl)-2,4,6,8-nonatetraenoic acid amide]",OD Value (x ± s),"A549 lung cancer cells; A549, MTT OD 570 nm, 1 ug/ml, 3 d, solvent DMSO (D)",1.551 ± 0.083 and 1.517 ± 0.100
same,OD Value (x ± s),"A549 lung cancer cells; A549, MTT OD 570 nm, 5 ug/ml, 3 d, solvent DMSO (D)",1.510 ± 0.193 and 1.357 ± 0.159
same,OD Value (x ± s),"A549 lung cancer cells; A549, MTT OD 570 nm, 10 ug/ml, 3 d, solvent DMSO (D)",1.296 ± 0.192 and 0.939 ± 0.040
same,OD Value (x ± s),A549 lung cancer cells; [6],0.617 ± 0.072
same,Inhibition Rate,A549 lung cancer cells; [7],0.327
same,OD Value (x ± s),A549 lung cancer cells; [8],0.703 ± 0.025
same,Inhibition Rate,A549 lung cancer cells; [9],0.519
same,OD Value (x ± s),A549 lung cancer cells; [10],0.229 ± 0.010
same,Inhibition Rate,A549 lung cancer cells; [11],0.753
same,OD Value (x ± s),A549 lung cancer cells; [12],0.106 ± 0.035
same,Inhibition Rate,A549 lung cancer cells; [13],0.949
same,Inhibition Rate,"A549 lung cancer cells; A549, MTT, 1 ug/ml, 3 d, solvent DMSO (D), given as fraction",0.169 and 0.187
same,Inhibition Rate,"A549 lung cancer cells; A549, MTT, 5 ug/ml, 3 d, solvent DMSO (D), given as fraction",0.191 and 0.273
same,Inhibition Rate,"A549 lung cancer cells; A549, MTT, 10 ug/ml, 3 d, solvent DMSO (D), given as fraction",0.305 and 0.497
same,OD Value (x ± s),liver cancer HepG2 cells; [14],1.19 ± 0.50
same,OD Value (x ± s),liver cancer HepG2 cells; [15],0.92 ± 0.27
same,OD Value (x ± s),liver cancer HepG2 cells; [16],0.94 ± 0.41
same,OD Value (x ± s),liver cancer HepG2 cells; [17],1.43 ± 0.07
same,Inhibition Rate,liver cancer HepG2 cells; [17],0.17
same,OD Value (x ± s),liver cancer HepG2 cells; [18],0.81 ± 0.12
same,Inhibition Rate,liver cancer HepG2 cells; [18],0.52
same,OD Value (x ± s),liver cancer HepG2 cells; [19],0.55 ± 0.03
same,Inhibition Rate,liver cancer HepG2 cells; [19],0.55
same,OD Value (x ± s),liver cancer HepG2 cells; [20],0.32 ± 0.12
same,Inhibition Rate,liver cancer HepG2 cells; [20],0.76
same,Inhibition Rate,liver cancer HepG2 cells; [21],0.30
same,Inhibition Rate,liver cancer HepG2 cells; [22],0.45
same,Inhibition Rate,liver cancer HepG2 cells; [23],0.45
same,OD Value (x ± s),liver cancer HepG2 cells; [24],1.331 ± 0.067
same,Inhibition Rate,liver cancer HepG2 cells; [24],0.385*
same,AFP,HepG2 cells [1],15.6 µg/L
same,CEA,A549 cells [2]; DMSO,2.8 µg/L
same,γ-GT,HepG2 cells [3],35.6 ± 1.0 U/L
same,Apoptosis Rate (%),HepG2 cells [4],30.2* %
same,G0-G1 (%),HepG2 cells [4],40.3%
same,G2-M (%),HepG2 cells [4],2.71%
same,S %,HepG2 cells [4],27.9%
same,effect on the apoptosis of A549 cells (ranking in words),A549 cells [5],most greatly effects on the apoptosis of A549 cells
same,Apoptosis Rate (%),A549 cells [5],40.9%
same,G0-G1 (%),A549 cells [5],35.1%
same,G2-M (%),A549 cells [5],1.62%
same,S %,A549 cells [5],23.6%
